Measured values reported in patent US8268803B2, “5, 6-ring annulated indole derivatives and use thereof” (Merck Sharp & Dohme Corp., priority 2006, dated 2012).
pEC50, pIC50: −log10 of the molar value.

How the values were obtained:
[1] = biological target: T1, HCV NS5B polymerase (NS5BΔCT21, from HCV-Con 1 isolate, genotype 1b) (Hepatitis C virus genotype 1b, UniProt Q9WMX2); assay: HCV NS5B Polymerase Inhibition Assay; assay type: biochemical; conditions: incorporation of radiolabeled CTP, 22° C. for 2 hours
T1 construct: A soluble C-terminal 21-amino acid truncated NS5B enzyme form; polyhistidine (C); made in house; host or cells: Escherichia coli
Description: A chemically synthesized 75-mer version, designated DCoH75, whose sequence matches the 3′-end of D-RNA, and DCoH75ddC, where the 3′-terminal cytidine of DCoH75 is replaced by dideoxycytidine, were used for assaying the NS5B enzyme activity as described in Ferrari et al., 12th International Symposium on HCV and Related Viruses, P-306 (2005). The sequence of the template RNA was: 5′-UGUGCCGGUCUUUCUGAACGGGAUAUAAACCUGGCCAGCUUCAUCGAACAAGUUGCCGUGUCUAUGACAUAGAUC-3′ (SEQ ID NO: 1). A soluble C-terminal 21-amino acid truncated NS5B enzyme form (NS5BΔCT21, from HCV-Con 1 isolate, genotype 1b, Genbank accession number AJ238799) was produced and purified from Escherichia coli as C-terminal polyhistidine-tagged fusion protein as described in Ferrari et al., J. Virol. 73:1649-1654 (1999). A typical assay contained 20 mM Hepes pH 7.3, 10 mM MgCl2, 60 mM NaCl, 100 μg/ml BSA, 20 units/ml RNasin, 7.5 mM DTT, 0.1 μm ATP/GTP/UTP, 0.026 μM CTP, 0.25 mM GAU, 0.03 μM RNA template, 20 μCi/ml [^33P]-CTP, 2% DMSO, and 30 or 150 nM NS5B enzyme. Reactions were incubated at 22° C. for 2 hours, then stopped by adding 150 mM EDTA, washed in DE81 filter plate in 0.5M di-basic sodium phosphate buffer, pH 7.0, and counted using Packard TopCount after the addition of scintillation cocktail. Polynucleotide synthesis was monitored by the incorporation of radiolabeled CTP. The effect of the Compounds of Formula (I) on the polymerase activity was evaluated by adding various concentrations of a Compound of Formula (I), typically in 10 serial 2-fold dilutions, to the assay mixture. The starting concentrations ranged from 200 μM to 1 μM. An IC50 value for the inhibitor, defined as the compound concentration that provides 50% inhibition of polymerase activity, was determined by fitting the cpm data to the Hill equation Y=100/(1+10^((Log IC50−X)*HillSlope)), where X is the logarithm of compound concentration, and Y is the % inhibition. Ferrari et al., 12th International Symposium on HCV and Related Viruses, P-306 (2005) described in detail this assay procedure. It should be noted that such an assay as described is exemplary and not intended to limit the scope of the invention. The skilled practitioner can appreciate that modifications including but not limited to RNA template, primer, nucleotides, NS5B polymerase form, buffer composition, can be made to develop similar assays that yield the same result for the efficacy of the compounds and compositions described in the invention.
NS5B polymerase inhibition data for selected Compounds of Formula (I) is provided below in Table 2, wherein the compound numbers correspond to the compound numbering set forth in the above specification.

[2] = test system: HCV replicon cells (replicon RNA level); assay: Cell-Based HCV Replicon Assay; conditions: Hepatitis C virus, 72 h; replicon RNA level by real time PCR (Taqman), cells harvested on day 3
Procedure: To measure cell-based anti-HCV activity of the a Compound of Formula (I), replicon cells were seeded at 5000 cells/well in 96-well collagen I-coated Nunc plates in the presence of the Compound of Formula (I). Various concentrations of a Compound of Formula (I), typically in 10 serial 2-fold dilutions, were added to the assay mixture, with the starting concentration ranging from 250 μM to 1 μM. The final concentration of DMSO was 0.5%, fetal bovine serum was 5%, in the assay media. Cells were harvested on day 3 by the addition of 1× cell lysis buffer (Ambion cat #8721). The replicon RNA level was measured using real time PCR (Taqman assay). The amplicon was located in 5B. The PCR primers were: 5B.2F, ATGGACAGGCGCCCTGA (SEQ ID NO: 2); 5B.2R, […] (SEQ ID NO: 3); the probe sequence was FAM-labeled CACGCCATGCGCTGCGG (SEQ ID NO: 4). GAPDH RNA was used as endogenous control and was amplified in the same reaction as NS5B (multiplex PCR) using primers and VIC-labeled probe recommended by the manufacturer (PE Applied Biosystem). The real-time RT-PCR reactions were run on ABI PRISM 7900HT Sequence Detection System using the following program: 48° C. for 30 min, 95° C. for 10 min, 40 cycles of 95° C. for 15 sec, 60° C. for 1 min. The ΔCT values (CT5B-CTGAPDH) were plotted against the concentration of test compound and fitted to the sigmoid dose-response model using XLfit4 (MDL). EC50 was defined as the concentration of inhibitor necessary to achieve ΔCT=1 over the projected baseline; EC90 the concentration necessary to achieve ΔCT=3.2 over the baseline. Alternatively, to quantitate the absolute amount of replicon RNA, a standard curve was established by including serially diluted T7 transcripts of replicon RNA in the Taqman assay. All Taqman reagents were from PE Applied Biosystems. Such an assay procedure was described in detail in e.g. Malcolm et al., Antimicrobial Agents and Chemotherapy 50: 1013-1020 (2006).
HCV Replicon assay data for selected Compounds of Formula (I) is provided below in Table 3, wherein the compound numbers correspond to the compound numbering set forth in the above specification. The data is designated as follows: “A” for EC50 values less than 1.0 micromolar (μM), “B” for EC50 values between 1.0 and 5.0 μM and “C” for EC50 values greater than 5.0 μM.

SMILES	pIC50 [1]	pEC50 [2]
CS(=O)(=O)NC(=O)c1c(-c2ccc[nH]c2=O)c2cc3c(cc2n1Cc1cc(F)ccc1F)CCC3 [Compound 1]	> 7.60	> 6.00
CS(=O)(=O)NC(=O)c1c(-c2ccc[nH]c2=O)c2cc3c(cc2n1Cc1ccc(O)cc1)CCC3 [Compound 2]	> 7.60	5.30 to 6.00
O=C(O)c1c(-c2ccc[nH]c2=O)c2cc3c(cc2n1Cc1cc(F)ccc1F)CCC3 [Compound 3]	> 7.60	5.30 to 6.00
CS(=O)(=O)NC(=O)c1c(-c2ccc[nH]c2=O)c2cc3c(cc2n1Cc1ccccc1O)CCC3 [Compound 4]	7.00 to 7.60	5.30 to 6.00
CS(=O)(=O)NC(=O)c1c(-c2ccc[nH]c2=O)c2cc3c(cc2n1Cc1ccc(F)cc1F)CCC3 [Compound 5]	7.00 to 7.60	5.30 to 6.00
CS(=O)(=O)NC(=O)c1c(-c2ccc[nH]c2=O)c2cc3c(cc2n1Cc1cccc(O)c1)CCC3 [Compound 6]	7.00 to 7.60	5.30 to 6.00
CS(=O)(=O)NC(=O)c1c(-c2ccc[nH]c2=O)c2cc3c(cc2n1Cc1ccc(OCc2ccccc2)cc1)CCC3 [Compound 8]	< 7.00	< 5.30
CS(=O)(=O)NC(=O)c1c(-c2ccc[nH]c2=O)c2cc3c(cc2n1Cc1ccccc1OCc1ccccc1)CCC3 [Compound 9]	< 7.00	< 5.30
CS(=O)(=O)NC(=O)c1c(-c2ccc[nH]c2=O)c2cc3c(cc2n1Cc1cccc(OCc2ccccc2)c1)CCC3 [Compound 10]	< 7.00	
Nc1cc(Cn2c(C(=O)O)c(-c3ccc[nH]c3=O)c3cc4scnc4cc32)ccn1 [Compound 11]	< 7.00	
CS(=O)(=O)NC(=O)c1c(-c2ccc[nH]c2=O)c2cc3scnc3cc2n1Cc1ccnc(N)c1 [Compound 12]	< 7.00	< 5.30
